Source: patent US20120115877A1, “Facially Amphiphilic Compounds, Compositions, And Uses Thereof In Treating Cancer” (POLYMEDIX, INC., priority 2010, published 2012)

Key:
Format in all cases: cell-based, human
[1] = system: MDA-MB-468; assay: NCI-60 screen, Breast Cancer; conditions: 10 μM
Method: (§1) Several compounds were tested at single concentrations (10 μM) against 59 different human tumor cell lines, representing leukemia, melanoma and cancers of the lung, colon, brain, ovary, breast, prostate, and kidney (see, Table 3). The human tumor cell lines of the cancer screening panel were grown in RPMI 1640 medium containing 5% fetal bovine serum and 2 mM L-glutamine. For a typical screening experiment, cells were inoculated into 96 well microtiter plates in 100 μL at plating densities ranging from 5,000 to 40,000 cells/well depending on the doubling time of individual cell lines. After cell inoculation, the microtiter plates were incubated at 37° C., 5% CO2, 95% air and 100% relative humidity for 24 hours prior to addition of the compounds.
(§2) After 24 hours, two plates of each cell line were fixed in situ with TCA, to represent a measurement of the cell population for each cell line at the time of drug addition (Tz). Compounds were solubilized in dimethyl sulfoxide at 400-fold the desired final maximum test concentration and stored frozen prior to use. At the time of drug addition, an aliquot of frozen concentrate was thawed and diluted to twice the desired final maximum test concentration with complete medium containing 50 μg/ml gentamicin. Additional four, 10-fold or ½ log serial dilutions were made to provide a total of five compound concentrations plus control. Aliquots of 100 μl of these different drug dilutions were added to the appropriate microtiter wells already containing 100 μl of medium, resulting in the required final compound concentrations.
(§3) Following drug addition, the plates were incubated for an additional 48 hours at 37° C., 5% CO2, 95% air, and 100% relative humidity. For adherent cells, the assay was terminated by the addition of cold TCA. Cells were fixed in situ by the gentle addition of 50 μl of cold 50% (w/v) TCA (final concentration, 10% TCA) and incubated for 60 minutes at 4° C. The supernatant was discarded, and the plates were washed five times with tap water and air dried. Sulforhodamine B (SRB) solution (100 μl) at 0.4% (w/v) in 1% acetic acid was added to each well, and plates were incubated for 10 minutes at room temperature. After staining, unbound dye was removed by washing five times with 1% acetic acid and the plates were air dried. Bound stain was subsequently solubilized with 10 mM trizma base, and the absorbance was read on an automated plate reader at a wavelength of 515 nm. For suspension cells, the methodology was the same except that the assay was terminated by fixing settled cells at the bottom of the wells by gently adding 50 μl of 80% TCA (final concentration, 16% TCA). Using the seven absorbance measurements (time zero, (Tz), control growth, (C), and test growth in the presence of drug at the five concentration levels (Ti)), the percentage growth was calculated at each of the compound concentrations levels. Percentage growth inhibition was calculated as:
(§4) [(Ti−Tz)/(C−Tz)]×100 for concentrations for which Ti>/=Tz
(§5) [(Ti−Tz)/Tz]×100 for concentrations for which Ti<Tz.
(§6) Three dose response parameters were calculated for each compound. Growth inhibition of 50% (GI50) was calculated from [(Ti−Tz)/(C−Tz)]×100=50, which is the compound concentration resulting in a 50% reduction in the net protein increase (as measured by SRB staining) in control cells during the compound incubation. The compound concentration resulting in total growth inhibition (TGI) was calculated from Ti=Tz. The LC50 (concentration of compound resulting in a 50% reduction in the measured protein at the end of the compound treatment as compared to that at the beginning) indicating a net loss of cells following treatment was calculated from [(Ti−Tz)/Tz]×100=−50. Values were calculated for each of these three parameters if the level of activity was reached; however, if the effect was not reached or was exceeded, the value for that parameter was expressed as greater or less than the maximum or minimum concentration tested.

[2] = system: T-47D; assay: NCI-60 screen, Breast Cancer; conditions: 10 μM
Method: as §1, §2, §3, §4, §5, §6

[3] = system: BT-549; assay: NCI-60 screen, Breast Cancer; conditions: 10 μM
Method: as §1, §2, §3, §4, §5, §6

[4] = system: MCF7; assay: NCI-60 screen, Breast Cancer; conditions: 10 μM
Method: as §1, §2, §3, §4, §5, §6

[5] = system: MDA-MB-31/ATCC; assay: NCI-60 screen, Breast Cancer; conditions: 10 μM, MDA-MB-231/ATCC
Method: as §1, §2, §3, §4, §5, §6

[6] = system: OVCAR-3; assay: NCI-60 screen, Ovarian Cancer; conditions: 10 μM
Method: as §1, §2, §3, §4, §5, §6

[7] = system: SK-OV-3; assay: NCI-60 screen, Ovarian Cancer; conditions: 10 μM
Method: as §1, §2, §3, §4, §5, §6

[8] = system: IGROV1; assay: NCI-60 screen, Ovarian Cancer; conditions: 10 μM
Method: as §1, §2, §3, §4, §5, §6

[9] = system: OVCAR-4; assay: NCI-60 screen, Ovarian Cancer; conditions: 10 μM
Method: as §1, §2, §3, §4, §5, §6

[10] = system: OVCAR-8; assay: NCI-60 screen, Ovarian Cancer; conditions: 10 μM
Method: as §1, §2, §3, §4, §5, §6

[11] = system: OVCAR-5; assay: NCI-60 screen, Ovarian Cancer; conditions: 10 μM
Method: as §1, §2, §3, §4, §5, §6

[12] = system: NCI/ADR-RES; assay: NCI-60 screen, Ovarian Cancer; conditions: 10 μM
Method: as §1, §2, §3, §4, §5, §6

[13] = system: SK-MEL-28; assay: NCI-60 screen, Melanoma; conditions: 10 μM
Method: as §1, §2, §3, §4, §5, §6

[14] = system: SK-MEL-2; assay: NCI-60 screen, Melanoma; conditions: 10 μM
Method: as §1, §2, §3, §4, §5, §6

[15] = system: SK-MEL-5; assay: NCI-60 screen, Melanoma; conditions: 10 μM
Method: as §1, §2, §3, §4, §5, §6

[16] = system: MALME-3M; assay: NCI-60 screen, Melanoma; conditions: 10 μM
Method: as §1, §2, §3, §4, §5, §6

[17] = system: UACC-257; assay: NCI-60 screen, Melanoma; conditions: 10 μM
Method: as §1, §2, §3, §4, §5, §6

[18] = system: NCI-H460; assay: NCI-60 screen, Non-Small Cell Lung Cancer; conditions: 10 μM
Method: as §1, §2, §3, §4, §5, §6

[19] = system: NCI-H322M; assay: NCI-60 screen, Non-Small Cell Lung Cancer; conditions: 10 μM
Method: as §1, §2, §3, §4, §5, §6

[20] = system: NCI-H226; assay: NCI-60 screen, Non-Small Cell Lung Cancer; conditions: 10 μM
Method: as §1, §2, §3, §4, §5, §6

[21] = system: A549/ATCC; assay: NCI-60 screen, Non-Small Cell Lung Cancer; conditions: 10 μM
Method: as §1, §2, §3, §4, §5, §6

[22] = system: HOP-62; assay: NCI-60 screen, Non-Small Cell Lung Cancer; conditions: 10 μM
Method: as §1, §2, §3, §4, §5, §6

[23] = system: EKVX; assay: NCI-60 screen, Non-Small Cell Lung Cancer; conditions: 10 μM
Method: as §1, §2, §3, §4, §5, §6

[24] = system: NCI-H23; assay: NCI-60 screen, Non-Small Cell Lung Cancer; conditions: 10 μM
Method: as §1, §2, §3, §4, §5, §6

[25] = system: NCI-H522; assay: NCI-60 screen, Non-Small Cell Lung Cancer; conditions: 10 μM
Method: as §1, §2, §3, §4, §5, §6

[26] = system: HOP-92; assay: NCI-60 screen, Non-Small Cell Lung Cancer; conditions: 10 μM
Method: as §1, §2, §3, §4, §5, §6

Compound	Percent Growth [1] [%]	Percent Growth [2] [%]	Percent Growth [3] [%]	Percent Growth [4] [%]	Percent Growth [5] [%]	Percent Growth [6] [%]	Percent Growth [7] [%]	Percent Growth [8] [%]	Percent Growth [9] [%]	Percent Growth [10] [%]	Percent Growth [11] [%]	Percent Growth [12] [%]	Percent Growth [13] [%]	Percent Growth [14] [%]	Percent Growth [15] [%]	Percent Growth [16] [%]	Percent Growth [17] [%]	Percent Growth [18] [%]	Percent Growth [19] [%]	Percent Growth [20] [%]	further results
NCCCc1cccc(-c2ccc3sc4ccc(-c5cccc(CCCN)c5)cc4c3c2)c1 [Compound D]	17.63	90.75	105.8	−59.63	60.18	62.71	103.1	80.28	59.85	83.89	96.93	95.39	99.21	81	100.8	134.1	100	69.57	107	110.1	Percent Growth [21]: 72.71%; Percent Growth [22]: 90.64%; Percent Growth [23]: 98.18%; Percent Growth [24]: 100.6%; Percent Growth [25]: 10.75%; Percent Growth [26]: 78.26%
c1cc(-c2ccc3sc4ccc(-c5ccnc(N6CCNCC6)c5)cc4c3c2)cc(N2CCNCC2)n1 [Compound E]	−82.28	−12.27	98.88	−89.85	−41.26	−94.47	51.66	−43.57	−87.74	−61.04	−46.66	3.12	−51.91	−73.48	63.85	−4.679	−70.37	−78.46	−53.02	39.89	Percent Growth [21]: −77.24%; Percent Growth [22]: −80.18%; Percent Growth [23]: 22.56%; Percent Growth [24]: 52.19%; Percent Growth [25]: −93.93%; Percent Growth [26]: 32.76%
NCCSc1cc(SCCN)c(C(F)(F)F)cc1NC(=O)c1cc(C(=O)Nc2cc(C(F)(F)F)c(SCCN)cc2SCCN)ncn1 [Compound F]	−78.28	34.11	101.8	−59.97	18.87	−15.5	15.33	4.7	−1.474	14.34	59.37	54.76	83.94	46.77	62.3	80.15	76.46	47.73	55.48	66.85	Percent Growth [21]: 15.81%; Percent Growth [22]: 29.35%; Percent Growth [23]: 75.72%; Percent Growth [24]: 60.86%; Percent Growth [25]: −2.5%; Percent Growth [26]: −24.05%
